The subject of assay [1] is LPS-induced TNFα secretion in monocyte-derived macrophages (MdM). Kind of assay: MdM assay: LPS-triggered TNFα (ELISA). It is filed as cell-based, human. The note with it: Homo sapiens, Macrophage, LPS-triggered TNFα inhibition. As to the method:
This assay evaluates illustrative compounds of the invention for their inhibition of LPS-induced TNFα and LPS triggered IL-10 secretion in monocyte-derived macrophages.
PBMCs are isolated from human blood samples (buffycoats). The buffy coat is aseptically transferred into a 50 mL Falcon tube, and diluted 1/2 in PBS. Falcon tubes are filled with 20 mL Lymphoprep™, on top of which 25 mL of the buffy coat is carefully added, tubes are centrifuged for 35 min at 400 g in temperature controlled centrifuge, without brake, at 25° C. PBMCs are aspirated from the white interface layer between sample and Lymphoprep™. PBMCs are washed five times in PBS.
PBMCs are centrifuged at 300×g for 10 min and resuspended at a density of 1.0E07 cells/80 μL Miltenyi buffer (PBS, pH 7.4, 1% FBS, 2 mM EDTA).
Starting from this point of the protocol all steps are performed on ice. 20 μL of CD14+ micro-beads are added per 1.0E07 cells, the tube is mixed and incubated for 15 min in the fridge at 4° C. Cell suspension volume is adjusted to total volume of 100 mL using Miltenyi buffer, mixed gently and subsequently centrifuged for 10 min at 300× g. Supernantant is discarded and cell pellet is resuspended in 12 mL of Miltenyi buffer.
Four LS columns are placed in the MACS Separator (magnet) from Miltenyi Biotec, and are prewet by rinsing with 3 mL of MACS buffer per column. Three mL of cell suspension is added onto the column (max 1*10^8 of labelled cells/column), and columns are subsequently washed 3 times with 3 mL of Miltenyi buffer.
The columns are removed from the magnets, and 5 mL of Miltenyi buffer are added to the column to flush out the CD14+ fraction by pushing the plunger into the column. The flushed fractions are collected in a fresh 50 mL Falcon and volume is adjusted to 30 mL using Miltenyi buffer, cells are centrifuged for 10 min at 300× g. The obtained cell pellet is resuspended in 10 mL RPMI w/o FBS, and cell density is determined using a hematologic analyser (Sysmex XS-500i).
On day 10, MdMs are triggered and compound is added.
A compound dilution plate is made in 100% DMSO by 3-fold dilution of 10 mM stock solution. An intermediate dilution plate (10× final concentration) is made by diluting the compound dilution plate 50-fold in RPMI medium.
Medium is carefully removed from cell plates using multichannel pipette, and replaced by 80 μL fresh medium. 10 μL of the 10× final concentration compound is added to the cells and incubated for 1 hour at 37° C. before addition of trigger. No trigger conditions/trigger conditions are spiked with equal final DMSO concentrations of 0.2% DMSO. 10 μL of 10×LPS (final conc. 200 ng/mL) solution are added to all wells except for the ‘no trigger wells’ where 10 μL medium is added. Supernatant is collected after 2 h (IL-10 determination) and after 20 h (TNFα determination) of LPS triggering.
The plate is then washed once with PBST (PBS+0.05% Tween20) and once with PBS followed by the addition of 100 μL of blocking buffer (1% Bovine Serum Albumin (BSA)-5% Sucrose) and plates are sealed and incubated for at least 4 h at RT. After washing the plate once with PBST and once with PBS, 40 μL of standard or sample are added (TNFα standard curve is prepared using a 1/2 serial dilution starting from 16000 pg/mL; dilutions are made in dilution buffer (PBS+1% BSA)). Plates are washed twice with PBST, and once with PBS, after which 35 μL of the detection antibody is added (final concentration 0.25 μg/mL diluted in dilution buffer) and plates are incubated for at least 2 h at RT. Plates are washed twice with PBST, and once with PBS, where after 35 μL of Strep-HRP conjugate (0.5 μg/mL final concentration diluted in dilution buffer) is added. Plates are incubated in the dark, at RT for at least 45 min but no longer than 1 hour. Plates are washed twice with PBST, and once with PBS.

A further assay addresses T1, SIK1 (Homo sapiens, UniProt P57059).
T1 construct: purchased Carna Biosciences 02-131
In words: biochemical. The conditions noted are these: 33P radioactive SIK kinase assay, AMARA peptide, 10 μM ATP; read-out: SIK1 IC50. The essentials:
(§1)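 Read-out: ^33P incorporated into AMARA peptide, counted on filter plates, taken as kinase activity. Reactions start on addition of labeled/unlabeled ATP to enzyme plus substrate and end with phosphoric acid. Controls: 1% DMSO (negative) and 10 μM staurosporine (positive), final.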

The target of a further assay is T2, SIK2 (Homo sapiens, UniProt Q9H0K1).
T2 construct: purchased ThermoFisher Scientific PV4792
Kind of assay: biochemical. The note with it: 33P radioactive SIK kinase assay, AMARA peptide, 10 μM ATP. Put shortly:
as §1

A further assay addresses T3, SIK3 (Homo sapiens, UniProt Q9Y2K2).
T3 construct: purchased SignalChem S12-11G-100
In words: biochemical. The essentials:
as §1

Some results are limits rather than exact numbers.

T2 sequence (Q9H0K1 whole entry): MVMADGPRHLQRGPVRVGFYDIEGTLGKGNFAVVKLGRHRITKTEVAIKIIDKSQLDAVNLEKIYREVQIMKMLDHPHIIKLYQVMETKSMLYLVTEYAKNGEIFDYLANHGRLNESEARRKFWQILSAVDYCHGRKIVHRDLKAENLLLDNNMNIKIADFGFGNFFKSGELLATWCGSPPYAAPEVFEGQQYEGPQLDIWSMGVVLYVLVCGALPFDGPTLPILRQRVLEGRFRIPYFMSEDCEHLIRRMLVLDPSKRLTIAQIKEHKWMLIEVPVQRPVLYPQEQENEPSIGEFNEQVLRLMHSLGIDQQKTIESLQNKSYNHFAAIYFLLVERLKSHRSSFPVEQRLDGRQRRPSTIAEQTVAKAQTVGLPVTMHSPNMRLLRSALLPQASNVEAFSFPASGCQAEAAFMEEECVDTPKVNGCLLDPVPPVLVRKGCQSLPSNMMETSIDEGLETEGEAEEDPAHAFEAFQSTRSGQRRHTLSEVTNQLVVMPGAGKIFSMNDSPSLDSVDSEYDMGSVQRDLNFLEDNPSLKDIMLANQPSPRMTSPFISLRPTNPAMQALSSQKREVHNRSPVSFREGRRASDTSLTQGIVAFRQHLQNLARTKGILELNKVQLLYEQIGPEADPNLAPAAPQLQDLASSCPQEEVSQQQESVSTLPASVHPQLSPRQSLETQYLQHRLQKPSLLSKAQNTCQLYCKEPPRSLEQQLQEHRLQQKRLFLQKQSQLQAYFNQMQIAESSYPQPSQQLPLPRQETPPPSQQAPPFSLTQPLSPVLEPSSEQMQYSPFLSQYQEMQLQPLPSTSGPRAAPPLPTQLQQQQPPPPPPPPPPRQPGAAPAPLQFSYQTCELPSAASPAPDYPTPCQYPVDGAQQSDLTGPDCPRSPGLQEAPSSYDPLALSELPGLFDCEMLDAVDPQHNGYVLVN
T3 sequence (Q9Y2K2 whole entry): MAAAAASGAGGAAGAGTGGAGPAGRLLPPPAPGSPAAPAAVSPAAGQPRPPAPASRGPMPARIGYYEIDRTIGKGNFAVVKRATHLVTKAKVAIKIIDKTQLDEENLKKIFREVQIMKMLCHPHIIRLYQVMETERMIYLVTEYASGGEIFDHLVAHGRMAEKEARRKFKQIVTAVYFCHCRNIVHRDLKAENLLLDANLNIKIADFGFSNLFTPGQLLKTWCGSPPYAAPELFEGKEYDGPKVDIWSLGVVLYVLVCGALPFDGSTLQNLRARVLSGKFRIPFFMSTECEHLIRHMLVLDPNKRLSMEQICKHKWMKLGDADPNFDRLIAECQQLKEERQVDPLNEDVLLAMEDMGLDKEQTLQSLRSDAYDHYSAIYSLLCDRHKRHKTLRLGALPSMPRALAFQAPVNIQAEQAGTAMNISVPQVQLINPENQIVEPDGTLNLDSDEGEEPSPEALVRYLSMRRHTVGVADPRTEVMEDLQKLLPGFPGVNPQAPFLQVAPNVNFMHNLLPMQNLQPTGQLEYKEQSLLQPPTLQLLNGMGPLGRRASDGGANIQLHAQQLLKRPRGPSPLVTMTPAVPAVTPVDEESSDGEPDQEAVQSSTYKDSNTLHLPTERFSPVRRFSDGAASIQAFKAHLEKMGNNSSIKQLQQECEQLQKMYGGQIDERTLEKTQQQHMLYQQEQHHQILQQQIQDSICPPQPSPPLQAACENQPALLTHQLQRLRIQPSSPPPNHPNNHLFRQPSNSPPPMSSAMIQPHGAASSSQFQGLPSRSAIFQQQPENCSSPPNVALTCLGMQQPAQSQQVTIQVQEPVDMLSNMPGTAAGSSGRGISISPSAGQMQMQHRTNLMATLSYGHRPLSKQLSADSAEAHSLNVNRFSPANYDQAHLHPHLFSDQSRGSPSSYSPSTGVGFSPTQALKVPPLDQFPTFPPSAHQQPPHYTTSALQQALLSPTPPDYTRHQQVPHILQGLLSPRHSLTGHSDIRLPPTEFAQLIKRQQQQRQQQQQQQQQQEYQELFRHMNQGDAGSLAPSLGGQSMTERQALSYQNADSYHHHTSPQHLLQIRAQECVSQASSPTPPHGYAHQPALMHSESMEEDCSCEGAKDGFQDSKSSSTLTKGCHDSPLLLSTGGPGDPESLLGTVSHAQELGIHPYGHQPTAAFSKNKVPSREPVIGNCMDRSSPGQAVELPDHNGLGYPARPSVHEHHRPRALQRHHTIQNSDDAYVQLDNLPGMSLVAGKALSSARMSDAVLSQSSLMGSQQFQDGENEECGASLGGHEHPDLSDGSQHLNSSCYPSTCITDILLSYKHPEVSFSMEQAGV
T1 sequence (P57059 whole entry): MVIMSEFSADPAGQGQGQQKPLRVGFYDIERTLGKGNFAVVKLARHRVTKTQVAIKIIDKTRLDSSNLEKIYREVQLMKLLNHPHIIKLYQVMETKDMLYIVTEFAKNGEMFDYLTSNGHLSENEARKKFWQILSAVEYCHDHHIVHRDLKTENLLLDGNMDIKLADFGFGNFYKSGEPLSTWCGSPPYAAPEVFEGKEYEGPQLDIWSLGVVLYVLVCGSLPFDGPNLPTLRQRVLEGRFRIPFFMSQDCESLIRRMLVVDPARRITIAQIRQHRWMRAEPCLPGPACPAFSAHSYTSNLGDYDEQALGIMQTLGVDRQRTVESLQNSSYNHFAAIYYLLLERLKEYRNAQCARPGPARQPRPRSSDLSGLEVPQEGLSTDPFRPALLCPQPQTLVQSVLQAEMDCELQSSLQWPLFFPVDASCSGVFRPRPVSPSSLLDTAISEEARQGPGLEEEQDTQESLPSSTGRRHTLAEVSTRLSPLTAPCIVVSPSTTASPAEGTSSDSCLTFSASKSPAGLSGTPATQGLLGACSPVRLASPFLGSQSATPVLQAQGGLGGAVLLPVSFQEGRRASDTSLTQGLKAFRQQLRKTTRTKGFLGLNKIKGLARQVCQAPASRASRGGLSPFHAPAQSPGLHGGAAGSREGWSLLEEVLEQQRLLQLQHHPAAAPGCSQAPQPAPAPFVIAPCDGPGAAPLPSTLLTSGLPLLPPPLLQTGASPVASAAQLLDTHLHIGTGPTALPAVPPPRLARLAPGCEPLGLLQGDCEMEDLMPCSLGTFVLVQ

`COc1cc(-n2cnc3cc(-c4ccc(N5CCOCC5)nc4)ccc32)cc(OC)c1C(=O)NCC(F)(F)F` [compound 32, 2,6-dimethoxy-4-[5-(6-morpholino-3-pyridyl)benzimidazol-1-yl]-N-(2,2,2-trifluoroethyl)benzamide]: the EC50 in assay [1] lay within 100 to 1000 nM. In addition, the IC50 on SIK1, on SIK2 and at SIK3 was 10 to 100 nM each time.
In assay [1], `COc1cc(-c2cnc3cc(-c4cnn(C(C)C(=O)OC(C)(C)C)c4)ccn23)cc(OC)c1C(=O)NCC(F)(F)F` (centres unmarked) [compound 243, tert-butyl 2-[4-[3-[3,5-dimethoxy-4-(2,2,2-trifluoroethyl-carbamoyl)phenyl]imidazol[1,2-a]pyridin-7-yl]pyrazol-1-yl]propanoate] showed an EC50 of 0.1 to 100 nM. The 50% inhibitory concentration (IC50) on SIK1, at SIK2 and on SIK3 was 0.01 to 10 nM each time.
On to `COc1cc(-c2cnc3cc(-c4cnn(CC(=O)OC5CC5)c4)ccn23)cc(OC)c1C(=O)NCC(F)(F)F` [compound 234, cyclopropyl 2-[4-[3-[3,5-dimethoxy-4-(2,2,2-trifluoroethyl-carbamoyl)phenyl]imidazo[1,2-a]pyridin-7-yl]pyrazol-1-yl]acelate], for which the 50% effective concentration (EC50) in assay [1] was 0.1 to 100 nM. In addition, the IC50 on SIK1, at SIK2 and against SIK3 was 0.01 to 10 nM throughout.
Take `CCNC(=O)c1c(OC)cc(-c2cnc3cc(-c4cnn(C5CCNCC5)c4)ccn23)cc1OC(F)F` [compound 149, 2-(difluoromethoxy)-N-ethyl-6-methoxy-4-[7-[1-(4-piperidyl)pyrazol-4-yl]imidazo[1,2-a]pyridin-3-yl]benzamide]: the EC50 in assay [1] is 100 to 1000 nM. Besides, the IC50 at SIK1, at SIK2 and against SIK3 was 0.01 to 10 nM in each case.
Consider `CCNC(=O)c1c(OC)cc(-c2cnc3cc(-c4cnn(C(F)F)c4)ccn23)cc1OC(F)F` [compound 151, 2-(difluoromethoxy)-4-[7-[1-(difluoromethyl)pyrazol-4-yl]imidazo[1,2-a]pyridin-3-yl]-N-ethyl-6-methoxy-benzamide], for which the EC50 in assay [1] was in the range of 0.1 to 100 nM. The half-maximal inhibitory concentration (IC50) on SIK1, at SIK2 and at SIK3 was 0.01 to 10 nM throughout.
Consider `COc1cc(-n2cnc3cc(-c4cnn(C)c4)ccc32)cc(OC)c1C(=O)NC1CCCC[C@H]1N` (stereo in doubt) [compound 139, N-[(1R,2R)-2-aminocyclohexyl]-2,6-dimethoxy-4-[5-(1-methylpyrazol-4-yl)benzimidazol-1-yl]benzamide], for which the EC50 in assay [1] lay within 1000 to 5000 nM. Further, the 50% inhibitory concentration (IC50) on SIK1, at SIK2 and against SIK3 was 0.01 to 10 nM throughout.
As for `COc1cc(-c2cnc3cc(-c4cnn(C)c4)ccn23)cc(O)c1C(=O)NCC(F)(F)F` [Cpd 233, 2-hydroxy-6-methoxy-4-[7-(1-methylpyrazol-4-yl)imidazo[1,2-a]pvridin-3-yl]-N-(2,2,2-trifluoroethyl)benzamide], the concentration giving a half-maximal response (EC50) in assay [1] is 0.1 to 100 nM. Besides, the half-inhibitory concentration (IC50) on SIK1 was in the range of 10 to 100 nM; at SIK2, 0.01 to 10 nM; at SIK3 it was 0.01 to 10 nM.
`COc1cc(-c2cnc3cc(-c4cnn(C)c4)ccn23)cc(NCCO)c1C(=O)NCC(F)(F)F` [compound 205, 2-(2-hydroxyethylamino)-6-methoxy-4-[7-(1-methylpyrazol-4-yl)imidazo[1,2-a]pyridin-3-y 1]-N-(2,2,2-trifluoroethyl)benzamide]: the concentration giving a half-maximal response (EC50) in assay [1] is 0.1 to 100 nM. In addition, the figures for the 50% inhibitory concentration (IC50) at SIK1, at SIK2 and against SIK3 were 10 to 100 nM, 0.01 to 10 nM and 0.01 to 10 nM, respectively.
On to `COc1cc(-n2cnc3cc(-c4cnn(C)c4)ccc32)cc(OC)c1C(=O)NCc1ccccn1` [compound 62, 2,6-dimethoxy-4-[5-(1-methylpyrazol-4-yl)benzimidazol-1-yl]-N-(2-pyridylmethyl)benzamide], for which the IC50 at SIK1, on SIK2 and against SIK3 was 100 to 500 nM in each case.
For `COc1cc(-n2cnc3cc(-c4cnn(C)c4)ccc32)cc(OC)c1C(=O)NC1CCCCC1OC` (centres unmarked) [compound 161, 2,6-dimethoxy-N-(2-methoxycyclohexyl)-4-[5-(1-methylpyrazol-4-yl)benzimidazol-1-yl]benzamide], the half-inhibitory concentration (IC50) on SIK1, on SIK2 and on SIK3 was above 500 nM in each case.
As for `COc1cc(-n2cnc3cc(-c4cnn(C)c4)ccc32)cc(OC)c1C(=O)Nc1ccn(C)n1` [compound 81, 2,6-dimethoxy-N-(1-methylpyrazol-3-yl)-4-[5-(1-methylpyrazol-4-yl)benzimidazol-1-yl]benzamide], the 50% inhibitory concentration (IC50) at SIK1, on SIK2 and at SIK3 was 100 to 500 nM each time.
Turning to `COc1cc(-n2cnc3cc(-c4cnn(C)c4)ccc32)cc(OC)c1C(=O)NC1CCS(=O)(=O)C1` (centres unmarked) [compound 66, N-(1,1-dioxothiolan-3-yl)-2,6-dimethoxy-4-[5-(1-methylpyrazol-4-yl)benzimidazol-1-yl]benzamide], the half-inhibitory concentration (IC50) at SIK1, on SIK2 and against SIK3 was 100 to 500 nM each time.
In the case of `COc1cc(-n2cnc3cc(-c4cnn(C)c4)ccc32)cc(OC)c1C(=O)NC1CCCC1(F)F` (centres unmarked) [compound 90, N-(2,2-difluorocyclopentyl)-2,6-dimethoxy-4-[5-(1-methylpyrazol-4-yl)benzimidazol-1-yl]benzamide], the half-maximal inhibitory concentration (IC50) on SIK1, at SIK2 and at SIK3 was 10 to 100 nM in each case.
Consider `COc1cncc(-c2ccn3c(-c4cc(OC)c(C(=O)NCC(F)(F)F)c(OC)c4)cnc3c2)c1` [compound 245, 2,6-dimethoxy-4-[7-(5-methoxy-3-pyridyl)imidazo[1,2-a]pyridin-3-yl]-N-(2,2,2-trifluoroethyl)benzamide], for which the figures for the concentration for half-maximal inhibition (IC50) on SIK1, at SIK2 and against SIK3 were 10 to 100 nM, 10 to 100 nM and 0.01 to 10 nM, respectively.
For `COc1cc(-c2cnc3cc(-c4cnn(C)c4)ccn23)cc(OC)c1C(=O)N[C@H]1CC[C@@H]1O` [compound 170], the concentration for half-maximal inhibition (IC50) lay within 10 to 100 nM on SIK1, 0.01 to 10 nM at SIK2 and 0.01 to 10 nM against SIK3.
In the case of `COc1cc(-c2cnc3cc(-c4cnn(C)c4)ccn23)cc(OC)c1C(=O)N1CCC(F)(F)C1` [compound 211, (3,3-difluoropyrrolidin-1-yl)-[2,6-dimethoxy-4-[7-(1-methylpyrazol-4-yl)imidazo[1,2-a]pyridin-3-yl]phenyl]methanone], the IC50 at SIK1, on SIK2 and at SIK3 was 10 to 100 nM throughout.
In the case of `COc1cc(-n2cnc3cc(-c4cnn(C)c4)ccc32)cc(OC)c1C(=O)N1CC(O)C1` [compound 184, [2,6-dimethoxy-4-[5-(1-methylpyrazol-4-yl)benzimidazol-1-yl]phenyl]-(3-hydroxyazetidin-1-yl)methanone], the half-inhibitory concentration (IC50) on SIK1, at SIK2 and against SIK3 was 100 to 500 nM in each case.

The record behind these values is patent US12065443B2, “Compounds and pharmaceutical compositions thereof for the treatment of diseases” (priority 2017, dated 2024).
